Reference: PubChem BioAssay (NCI)
Where “and” joins values, the source holds several entries; their conditions need not be identical. Equal entries are not always repeated.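 1) Cells in 96-well plates. 2) Compound, 48 h, 5 concentrations. 3) Linear interpolation between surrounding doses. 4) Unreached endpoint = highest concentration. GI50 is the concentration that inhibits growth by half. At the TGI there is no net growth.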

What was measured:
Assay in all cases: NCI tumour cell line growth inhibition, 48 h
[1] = tested on: PC-3 prostate
[2] = tested on: SW-620 colon
[3] = tested on: SK-OV-3 ovarian
[4] = tested on: A549 NSCLC
[5] = tested on: NCI-H522 lung
[6] = tested on: K-562 leukemia
[7] = tested on: HT29 colon
[8] = tested on: BT-549 breast
[9] = tested on: 786-0 renal
[10] = tested on: MDA-MB-231 breast

Row | SMILES | GI50 [1] | TGI [1] [µM] | GI50 [2] | TGI [2] | GI50 [3] [µM] | TGI [3] | GI50 [4] | TGI [4] | GI50 [5] | TGI [5] | GI50 [6] | TGI [6] | GI50 [7] [µM] | TGI [7] | GI50 [8] [µM] | TGI [8] | GI50 [9] [µM] | TGI [9] | GI50 [10] | TGI [10]
1 | CN(C)CCCC(=O)Nc1ccc(Cn2nnc3c2C(=O)c2nnn(Cc4ccc(NC(=O)CCCN(C)C)cc4)c2C3=O)cc1 | 4.75 µM | 43.4 | 3.43 µM | 12.2 µM | 20.9 | 49 µM | 16.8 µM | 39.2 µM | 2.15 µM | 5.06 µM | 5.45 µM | 55.9 µM | 3.22 | 7.87 µM | 13.8 | 29.8 µM | 18.2 | 44.2 µM | – | –
2 | CCCCc1nc2cc(/C=C/C(=O)NO)ccc2n1CCN(CC)CC | 0.327 µM | 16.2 | 0.228 µM | 3.32 µM | 0.241 | 0.88 µM | 0.318 µM | 2.4 µM | 0.0802 µM | 0.52 µM | 0.282 µM | > 100 µM | 0.198 | 0.762 µM | 1.98 | 38.2 µM | 0.46 | 11.5 µM | 0.485 µM | 5.43 µM
3 | Oc1ccc(SCc2ccc(NCc3ccccc3)cc2)cc1 | – | 71.9 | – | > 100 µM | – | > 100 µM | – | 56.7 µM | – | 98.2 µM | – | > 100 µM | – | 48.3 µM | – | > 100 µM | – | 26.8 µM | – | > 100 µM
4 | OC(C(=Nc1ccccc1)c1ccccc1)c1ccccc1 (centres undefined) | – | – | – | 66.5 µM | – | 55.8 µM | – | 33.6 µM | – | 18.9 µM | – | > 100 µM | – | 25.6 µM | – | 9.51 µM | – | 41.9 µM | – | 39.3 µM
5 | CC(C)c1ccc(O)c(=O)cc1 | – | – | 6.15 µM | > 100 µM | – | > 100 µM | 4.69 µM | > 71.4 µM | 3.4 µM | 24.5 µM and 24.4 µM | 3.63 µM | > 53.1 µM and 14.6 µM | 2.81 | > 100 µM | – | – | 14.7 | > 100 µM | 13.4 µM | –
6 | COC1(OC)c2ccccc2C2(O)c3ccccc3C(=O)C12 (centres undefined) | – | – | – | > 100 µM | – | > 100 µM | – | – | – | 47 µM | – | > 100 µM | – | > 100 µM | – | – | – | > 100 µM | – | –
7 | C=C(C(=O)OC)[C@@H]1C[C@@H](O)[C@]2(C)CC/C=C(\C)CCC[C@H](C)[C@H](O)C1O2 | 30.9 µM | > 100 | 42.2 µM | > 100 µM | > 100 | > 100 µM | 61.3 µM | > 100 µM | 26.1 µM | > 100 µM | 22.2 µM | 62.2 µM | 53 | > 100 µM | 29.5 | 79.1 µM | > 100 | > 100 µM | 58.5 µM | > 100 µM
8 | COc1ccc(Cn2cc(Cn3c(=O)c(-c4nc5ccccc5[nH]4)cc4ccccc43)nn2)c(OC)c1OC | 0.313 µM | > 100 | 0.223 µM and 0.293 µM | 50 µM and > 100 µM | – | – | 0.213 µM and 0.477 µM | – | 0.148 µM and 0.176 µM | – | 0.162 µM and 0.191 µM | 50 µM and > 100 µM | 0.0712 | 4.05 µM | 0.502 | 1.52 µM | 0.457 | 2.86 µM | 0.292 µM and 0.451 µM | 1.54 µM and 3.07 µM
9 | CN1c2ccccc2C(C)(C)C12CC(c1ccc(Cl)c(S(=O)(=O)N3CCCC3)c1)=NO2 (centres undefined) | 59 µM | > 100 | – | – | > 100 | > 100 µM | > 100 µM | > 100 µM | > 100 µM | > 100 µM | – | – | – | – | > 100 | > 100 µM | > 100 | > 100 µM | > 100 µM | > 100 µM
10 | CN(Cc1ccccc1)C1(N(C)Cc2ccccc2)CC1 | – | – | – | > 100 µM | – | > 100 µM | – | > 100 µM | – | > 100 µM | – | > 100 µM | – | > 100 µM | – | – | – | > 100 µM | – | –
11 | COc1ccc2sc3c(NCCCNCCO)nc4ccccc4c3c(=O)c2c1 | 1.58 µM | 3.1 | 1.61 µM | 3.13 µM | – | – | 1.68 µM | 3.31 µM | 1.74 µM | 3.37 µM | 1.83 µM | 4.32 µM | 1.57 | 3.03 µM | 10.2 | 22.7 µM | 1.38 | 2.82 µM | 1.48 µM | 2.95 µM
12 | O=[N+]([O-])c1ccc(O)c2ncccc12 | 35.8 µM and 4.02 µM | > 100 | – | > 100 µM and 18.6 µM | – | > 100 µM and 15.7 µM | – | > 100 µM and 12.9 µM | – | – | – | > 100 µM and 15.5 µM | – | > 100 µM and 18.9 µM | – | > 100 µM and 24 µM | – | > 100 µM and 11.6 µM | 38.4 µM and 4.4 µM | > 100 µM and 20.6 µM
13 | COC(=O)c1cc2c(cc1Cl)SC(N(N(C)C)S(=O)(=O)c1ccc(Cl)cc1)=NS2(=O)=O | 7.63 µM | 20.5 | 14.3 µM | 27.4 µM | 17.9 | 49.2 µM | 17.2 µM | > 100 µM | 12.4 µM | 30.2 µM | 11.3 µM | 23.8 µM | 16.1 | 31.9 µM | – | – | 31.3 | > 100 µM | 17.1 µM | 44 µM
14 | Cc1nn(C)c(=O)c2nn(-c3ccccc3)c(C)c12 | – | – | – | > 100 µM | – | > 100 µM | – | > 100 µM | – | > 100 µM | – | > 100 µM | – | > 100 µM | – | – | – | > 100 µM | – | –
15 | COc1ccc(Nc2c[nH]c(=O)[nH]c2=O)cc1 | – | > 100 | – | > 100 µM | – | > 100 µM | – | > 100 µM | – | > 100 µM | – | > 100 µM | – | > 100 µM | – | – | – | > 100 µM | – | > 100 µM
16 | O=C1CC(c2c[nH]c3ccccc23)C(=O)N1c1ccccc1 (centres undefined) | – | – | – | > 100 µM | – | > 100 µM | – | > 100 µM | – | – | – | > 100 µM | – | > 100 µM | – | – | – | > 100 µM | – | –
17 | CC(C)(C)C(=O)OCC(COC(=O)C(C)(C)C)[N+](=O)[O-] | – | – | – | > 100 µM | – | > 100 µM | – | > 100 µM | – | 47.3 µM | – | > 100 µM | – | > 100 µM | – | – | – | > 100 µM | – | –
18 | C1C[OH+]CC[OH+]CC[OH+]CC[OH+]CC[OH+]CC[OH+]1.[Cl-].[Ta+5] | – | – | > 100 µM | > 100 µM | > 100 | > 100 µM | > 100 µM | > 100 µM | > 100 µM | > 100 µM | > 100 µM | > 100 µM | > 100 | > 100 µM | – | – | > 100 | > 100 µM | – | –
